Laboratory results as given in patent US20210330611A1, “THERAPY FOR NEUROLOGICAL DISEASES/DISORDERS” (priority 2020, published 2021).
Like-named read-outs stand apart in the source and are kept apart here.

How the values were obtained:
[1] = tested on: LPS-induced microglia activation; assay: Image-based assay of LPS-induced microglia activation (HTS and dose response); type: cell-based, rat; conditions: for inhibition at 10 µM: Rattus norvegicus, Microglia, read-out: LPS % inhibition
[2] = tested on: fibrin- and LPS-induced microglia activation; assay: cells; type: cell-based, rat
[3] = tested on: primary rat microglia; assay: Cell toxicity (dead cells, size <150 μm2) in coated fibrin (cFib) assay;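 note: share of dead cells sized under 150 µm2 at 10 µM in fibrin-stimulated microglia HTS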
[4] = tested on: fibrin-induced microglia activation; assay: Image-based assay of fibrin-induced microglia activation (HTS and dose response); type: cell-based, rat; conditions: for inhibition at 10 µM: Rattus norvegicus, Microglia, read-out: Fibrin % inhibition
[5] = tested on: primary rat microglia; assay: Cell toxicity (dead cells, size <150 μm2) in LPS assay
[6] = 48 h, primary microglia HTS, LPS stimulation, increased cell size (>800 μm^2) as marker of activation
[7] = quadrant by fibrin and LPS inhibition in HTS of 1907 compounds
[8] = primary microglia HTS, fibrin stimulation, decreased size (<150 μm^2) as marker of toxicity
[9] = primary microglia HTS, fibrin stimulation, increased cell size (>800 μm^2) as marker of activation
[10] = primary microglia HTS, LPS stimulation, decreased size (<150 μm^2) as marker of toxicity
[11] = primary microglia HTS, 10 μM, LPS-stimulated, cell size >800 μm^2 as marker of activation
[12] = HTS of 1907 compounds, quadrant by fibrin and LPS inhibition
[13] = primary microglia HTS, 10 μM, fibrin assay, cell size <150 μm^2 as marker of toxicity
[14] = primary microglia HTS, 10 μM, fibrin-stimulated, cell size >800 μm^2 as marker of activation
[15] = primary microglia HTS, 10 μM, LPS assay, cell size <150 μm^2 as marker of toxicity
[16] = primary HTS, 10 μM, LPS-stimulated primary microglia
[17] = primary HTS, 10 μM, fibrin assay, dead cells size <150 μm2
[18] = primary HTS, 10 μM, fibrin-stimulated primary microglia
[19] = primary HTS, 10 μM, LPS assay, dead cells size <150 μm2
[20] = 48 h, primary microglia HTS, LPS stimulation, activation = cell size >800 μm2
[21] = primary microglia HTS, fibrin stimulation, toxicity = cell size <150 μm2
[22] = primary microglia HTS, fibrin stimulation, activation = cell size >800 μm2
[23] = primary microglia HTS, LPS stimulation, toxicity = cell size <150 μm2

Row | Compound | Quadrant (FIG. 5b) [2, 7] | Quadrant (FIG. 5b) ([2]; primary HTS, 10 μM) | Fibrin % cell toxicity [3, 17] [%] | LPS % cell toxicity [5, 19] [%] | inhibition at 10 µM [1, 20] [%] | Fibrin % cell toxicity [3, 21] [%] | inhibition at 10 µM [4, 22] [%] | LPS % cell toxicity [5, 23] [%] | other results
1 | c1ccc2c(CC3=NCCN3)cccc2c1 [Naphazoline] | Q4 |  |  |  |  |  |  |  | inhibition at 10 µM [1, 6]: 13%; Fibrin % cell toxicity [3, 8]: 1%; inhibition at 10 µM [4, 9]: -1%; LPS % cell toxicity [5, 10]: 1%
2 | COc1cc2c3cc1Oc1cc(ccc1O)C[C@@H]1c4c(cc(OC)c(O)c4Oc4ccc(cc4)C[C@@H]3N(C)CC2)CC[N+]1(C)C [Tubocurarine] |  |  |  |  |  |  |  |  | inhibition at 10 µM [1, 11]: 19%; Quadrant (FIG. 5b) [2, 12]: Q4; Fibrin % cell toxicity [3, 13]: 0%; inhibition at 10 µM [4, 14]: -1%; LPS % cell toxicity [5, 15]: 0%
3 | Capreomycin Sulfate |  | Q4 | 1 | 0 |  |  |  |  | LPS % inhibition [1, 16]: 3%; Fibrin % inhibition [4, 18]: −32%
4 | CC12CC3CC(C)(C1)CC(N)(C3)C2 [Memantine] | Q4 |  |  |  |  |  |  |  | inhibition at 10 µM [1, 6]: 5%; Fibrin % cell toxicity [3, 8]: 0%; inhibition at 10 µM [4, 9]: 2%; LPS % cell toxicity [5, 10]: 0%
5 | CC[C@H](C)[C@H](N)C(=O)O [L-Isoleucine] | Q4 |  |  |  | 17 | 0 | -35 | 0 | 
6 | CC1(C)OC(=O)C(OCC2CC2)=C1c1ccc(S(C)(=O)=O)cc1 [Firocoxib] | Q4 |  |  |  | 11 | 1 | -10 | 1 | 
7 | CCCCCC(=O)O[C@]1(C(C)=O)CC[C@H]2[C@@H]3CCC4=CC(=O)CC[C@]4(C)[C@H]3CC[C@@]21C [Hydroxyprogesterone Caproate] | Q4 |  |  |  | 25 | 1 | 22 | 0 | 
8 | COC(=O)N/N=C/c1c[n+]([O-])c2ccccc2[n+]1[O-] [Carbadox] |  | Q4 | 1 | 1 |  |  |  |  | inhibition at 10 µM [1, 16]: 11%; inhibition at 10 µM [4, 18]: -2%
9 | Cc1ccc(S(=O)(=O)NC(=O)NN2CC3CCCC3C2)cc1 (stereo not drawn) [Gliclazide] | Q4 |  |  |  | 20 | 1 | 1 | 0 | 
10 | CCCCC(CC)COC(=O)c1ccccc1O (stereo not drawn) [Octisalate] | Q4 |  |  |  |  |  |  |  | inhibition at 10 µM [1, 6]: 5%; Fibrin % cell toxicity [3, 8]: 0%; inhibition at 10 µM [4, 9]: -17%; LPS % cell toxicity [5, 10]: 0%
11 | CN(C)CCc1c[nH]c2ccc(C[C@H]3COC(=O)N3)cc12 [Zolmitriptan] |  |  |  |  |  |  |  |  | inhibition at 10 µM [1, 11]: 18%; Quadrant (FIG. 5b) [2, 12]: Q4; Fibrin % cell toxicity [3, 13]: 1%; inhibition at 10 µM [4, 14]: 9%; LPS % cell toxicity [5, 15]: 0%
12 | CCN[C@@H]1C[C@H](N)[C@@H](O[C@H]2OC(CN)=CC[C@H]2N)[C@H](O)[C@H]1O[C@H]1OC[C@](C)(O)[C@H](NC)[C@H]1O.CCN[C@@H]1C[C@H](N)[C@@H](O[C@H]2OC(CN)=CC[C@H]2N)[C@H](O)[C@H]1O[C@H]1OC[C@](C)(O)[C@H](NC)[C@H]1O.O=S(=O)(O)O.O=S(=O)(O)O.O=S(=O)(O)O.O=S(=O)(O)O.O=S(=O)(O)O [Netilmicin Sulfate] | Q4 |  |  |  |  |  |  |  | LPS % inhibition ([1]; primary microglia HTS, LPS stimulation, increased cell size (>800 μm^2) as marker of activation): 12%; Fibrin % cell toxicity [3, 8]: 1%; Fibrin % inhibition [4, 9]: −6%; LPS % cell toxicity [5, 10]: 0%
13 | CCOC(=O)CC(SP(=S)(OC)OC)C(=O)OCC (stereo not drawn) [Malathion] | Q4 |  |  |  |  |  |  |  | inhibition at 10 µM [1, 6]: 8%; Fibrin % cell toxicity [3, 8]: 0%; inhibition at 10 µM [4, 9]: -8%; LPS % cell toxicity [5, 10]: 0%
14 | O=C(O)c1ccc(S(=O)(=O)N(Cl)Cl)cc1 [Halazone] | Q4 |  |  |  | 19 | 0 | -13 | 0 | 
15 | C[C@]12CCC(=O)C=C1C=C[C@@H]1[C@@H]2CC[C@@]2(C)[C@H]1CC[C@@]21CCC(=O)O1 [Canrenone] |  | Q4 | 1 | 0 |  |  |  |  | inhibition at 10 µM [1, 16]: 19%; inhibition at 10 µM [4, 18]: -10%
16 | CC#CCn1c(N2CCC[C@@H](N)C2)nc2c1c(=O)n(Cc1nc(C)c3ccccc3n1)c(=O)n2C [Linagliptin] | Q4 |  |  |  | 14 | 1 | 2 | 1 | 
17 | CC(=O)NC1CCSC1=O (stereo not drawn) [Citiolone] |  | Q4 | 0 | 0 |  |  |  |  | inhibition at 10 µM [1, 16]: 7%; inhibition at 10 µM [4, 18]: -32%
18 | CCNC(=O)[C@@H]1CCCN1C(=O)[C@H](CCCNC(=N)N)NC(=O)[C@H](CC(C)C)NC(=O)[C@@H](CC(C)C)NC(=O)[C@H](Cc1ccc(O)cc1)NC(=O)[C@H](CO)NC(=O)[C@H](Cc1c[nH]c2ccccc12)NC(=O)[C@H](Cc1c[nH]cn1)NC(=O)[C@@H]1CCC(=O)N1 [Leuprolide] | Q4 |  |  |  |  | 1 |  | −1 | LPS % inhibition ([1]; primary microglia HTS, LPS stimulation, activation = cell size >800 μm2): −3%; Fibrin % inhibition [4, 22]: 5%
19 | CC(=O)OCC(=O)[C@@]1(O)CC[C@H]2[C@@H]3CCC4=CC(=O)CC[C@]4(C)[C@H]3C(=O)C[C@@]21C [Cortisone Acetate] |  | Q4 | 1 | 0 |  |  |  |  | inhibition at 10 µM [1, 16]: 7%; inhibition at 10 µM [4, 18]: 0%
20 | CC1(C)S[C@@H]2[C@H](N3C(=O)[C@@H](c4ccccc4)NC3(C)C)C(=O)N2[C@H]1C(=O)O [Hetacillin Potassium] | Q4 |  |  |  | 15 | 0 | -15 | 1 | 
21 | C[N+](C)(C)CCOC(N)=O [Carbachol] |  | Q4 | 1 | 0 |  |  |  |  | inhibition at 10 µM [1, 16]: 6%; inhibition at 10 µM [4, 18]: -18%
22 | Tyloxapol |  |  |  |  |  |  |  |  | LPS % inhibition [1, 11]: 17%; Quadrant (FIG. 5b) [2, 12]: Q4; Fibrin % cell toxicity [3, 13]: 1%; Fibrin % inhibition [4, 14]: −1%; LPS % cell toxicity [5, 15]: 0%
23 | O=C1C(O)=C(O)C(=O)C(O)=C1O [Tetraquinone] |  |  |  |  |  |  |  |  | LPS % inhibition [1, 11]: 15%; Quadrant (FIG. 5b) [2, 12]: Q4; Fibrin % cell toxicity [3, 13]: 0%; Fibrin % inhibition [4, 14]: −10%; LPS % cell toxicity [5, 15]: 0%
24 | CCC(CC)(CC(=O)Nc1cccc(/C=C/c2nc(C3CCC3)cs2)c1)C(=O)O [Cinalukast] |  | Q4 | 1 | 0 |  |  |  |  | inhibition at 10 µM [1, 16]: -8%; inhibition at 10 µM [4, 18]: -21%
25 | O=C(c1cccnc1)N1CCOCC1 [Nicopholine] | Q4 |  |  |  |  |  |  |  | inhibition at 10 µM [1, 6]: 21%; Fibrin % cell toxicity [3, 8]: 0%; inhibition at 10 µM [4, 9]: 26%; LPS % cell toxicity [5, 10]: 0%
26 | CCCCOC(=O)c1ccc(N)cc1 [Butamben] |  | Q4 | 0 | 1 |  |  |  |  | inhibition at 10 µM [1, 16]: 14%; inhibition at 10 µM [4, 18]: -25%
27 | COc1c(N2CCNC(C)C2)c(F)cc2c(=O)c(C(=O)O)cn(C3CC3)c12 (stereo not drawn) [Gatifloxacin] | Q4 |  |  |  | 19 | 1 | -19 | 0 | 
28 | CO/N=C1\CN(c2nc3c(cc2F)c(=O)c(C(=O)O)cn3C2CC2)CC1CN (stereo not drawn) [Gemifloxacin] | Q4 |  |  |  | 6 | 0 | -34 | 0 | 
29 | Cc1cc(O)c(C(=O)N[C@@H](C(=O)N[C@@H]2C(=O)N3C(C(=O)O)=C(CSc4nnnn4C)CS[C@H]23)c2ccc(O)cc2)cn1 [Cefpiramide] |  | Q4 | 1 | 0 |  |  |  |  | inhibition at 10 µM [1, 16]: 20%; inhibition at 10 µM [4, 18]: 12%
30 | S=C1SCN(Cc2ccccc2)CN1Cc1ccccc1 [Sulbentine] |  |  |  |  |  |  |  |  | inhibition at 10 µM [1, 11]: 13%; Quadrant (FIG. 5b) [2, 12]: Q4; Fibrin % cell toxicity [3, 13]: 1%; inhibition at 10 µM [4, 14]: 48%; LPS % cell toxicity [5, 15]: 0%
